Assay results: patent US8557998B2, “Benzylpiperizine compound” (Dainippon Sumitomo Pharma Co., Ltd, priority 2008, dated 2013)

What was measured:
[1] = target: T1, human serotonin transporter (h-SERT) (Homo sapiens, UniProt P31645); experiment: Screening test using [3H]citalopram binding for evaluating human serotonin reuptake inhibitory effect; settings: h-SERT/CHO membrane preparation, [3H]citalopram approximately 2 nM, room temperature 60 minutes; read-out: Test Example 1: h-SERT binding inhibition constant (Ki)
T1 construct: expressed in transfected cells; host or cells: CHO cells (h-SERT/CHO), Geneticin-selected
T1 sequence (P31645 whole entry): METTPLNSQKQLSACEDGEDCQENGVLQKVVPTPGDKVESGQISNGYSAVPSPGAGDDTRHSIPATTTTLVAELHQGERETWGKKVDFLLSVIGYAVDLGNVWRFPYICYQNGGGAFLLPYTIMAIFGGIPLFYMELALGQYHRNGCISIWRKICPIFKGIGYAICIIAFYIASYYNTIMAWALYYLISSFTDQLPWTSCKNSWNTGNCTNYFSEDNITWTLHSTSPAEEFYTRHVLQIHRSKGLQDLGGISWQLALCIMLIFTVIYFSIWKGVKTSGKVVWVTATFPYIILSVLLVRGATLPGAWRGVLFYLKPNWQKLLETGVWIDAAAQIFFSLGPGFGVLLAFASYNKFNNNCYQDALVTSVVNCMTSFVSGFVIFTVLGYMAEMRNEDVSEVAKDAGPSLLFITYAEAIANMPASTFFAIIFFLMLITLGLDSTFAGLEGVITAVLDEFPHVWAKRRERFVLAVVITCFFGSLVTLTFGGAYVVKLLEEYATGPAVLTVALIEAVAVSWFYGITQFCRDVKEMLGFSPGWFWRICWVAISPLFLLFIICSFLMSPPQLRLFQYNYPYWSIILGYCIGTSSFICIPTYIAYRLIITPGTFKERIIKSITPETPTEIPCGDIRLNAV
Source text: CHO cells containing a human serotonin transporter (h-SERT) expressed therein (h-SERT/CHO) were used in the experiment.
1-2 Receptor Binding Experiment
A smaller value of the h-SERT binding inhibition constant Ki means a higher human serotonin reuptake inhibitory effect.

[2] = target: T1, human serotonin transporter (h-SERT); experiment: Serotonin transporter function inhibition test using [3H]5-HT; format: cell-based; settings: h-SERT/CHO cells, [3H]5-HT uptake approximately 10 nM, 37° C. 10 minutes; read-out: Test Example 5: h-SERT Function Inhibition Constant (Ki)
Experimental: 1-1 Cells Used and Preparation of Cell Suspension
CHO cells containing a human serotonin transporter (h-SERT) expressed therein (h-SERT/CHO) were used in the experiment. […] The collected cells were suspended in a buffer solution containing 0.1 mM CaCl2 and 1 mM MgCl2 in PBS (hereinafter, referred to as PBSCM) and stored in ice until use.
Specifically, 149 μl of the cell suspension (10×10^4 cells/well) and 1 μl of a solution of a test drug dissolved in dimethyl sulfoxide were preincubated at 37° C. for 10 minutes.

CYP2D6 [3] = target: T2, CYP2D6 (Homo sapiens, UniProt P10635); experiment: Screening test of the rate of CYP2D6 contribution in human liver microsomal metabolism; format: in vitro ADME; set-up: key to Rate of CYP2D6 Contribution indeterminable due to high stability for human microsomal metabolism: —*^): The rate of CYP2D6 contribution was indeterminable in the present test due to high stability for human microsomal metabolism; settings: 1 mg/mL human liver microsomes, 1 μM test substance, 37° C.; for Test Example 4: Rate of CYP2D6 Contribution: with/without quinidine 4 μM
T2 construct: Pooled of Human Liver Microsomes was purchased from Xenotech, LLC; tissue Xenotech, LLC; host or cells: pooled human liver microsomes
T2 sequence (P10635 whole entry): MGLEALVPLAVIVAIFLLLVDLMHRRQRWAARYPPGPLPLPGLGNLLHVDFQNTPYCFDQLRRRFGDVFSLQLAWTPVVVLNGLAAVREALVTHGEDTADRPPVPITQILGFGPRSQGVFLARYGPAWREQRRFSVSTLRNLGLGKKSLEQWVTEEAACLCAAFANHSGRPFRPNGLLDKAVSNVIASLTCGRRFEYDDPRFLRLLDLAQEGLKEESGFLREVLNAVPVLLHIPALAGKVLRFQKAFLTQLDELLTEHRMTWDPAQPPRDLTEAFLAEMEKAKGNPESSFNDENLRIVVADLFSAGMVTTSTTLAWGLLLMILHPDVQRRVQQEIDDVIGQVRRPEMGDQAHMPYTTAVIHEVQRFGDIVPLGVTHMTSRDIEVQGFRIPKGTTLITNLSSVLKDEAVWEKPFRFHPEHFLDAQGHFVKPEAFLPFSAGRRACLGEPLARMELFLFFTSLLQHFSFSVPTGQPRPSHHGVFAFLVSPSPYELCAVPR
Experimental: Screening Test of the Rate of CYP2D6 Contribution in Human Liver Microsomal Metabolism
0.2 mL of a 50 mM potassium phosphate buffer solution (pH 7.4) containing NADPH (final concentration: 3 mM, manufactured by Oriental Yeast Co., Ltd.), 1 mg/mL human liver microsomes (manufactured by XENOTECH, LLC), and a 1 μM test substance was heated on a water bath at 37° C. for metabolic reaction. After the reaction for 15 minutes or 30 minutes, methanol was added in a volume 3 times that of the reaction solution, and the mixture was stirred to terminate the reaction. This reaction solution was centrifuged for protein precipitation. Then, the supernatant was collected and subjected to LC-MS/MS analysis. The results were analyzed as follows:
The test substance was quantified, and time-dependent change in the amount of the substance remaining was logarithmically plotted. A metabolic rate was calculated from the slope.
The ratio of the metabolic rate obtained by the addition of quinidine (final concentration: 4 μM) to the reaction solution to the metabolic rate obtained without the addition was used as the rate of contribution of enzymes other than CYP2D6, and the rate of contribution obtained by subtracting this rate of contribution of other enzymes from the total was used as the rate of CYP2D6 contribution. Specifically, it was calculated according to the equation: Rate of contribution(%)={1−(metabolic rate [with quinidine]/metabolic rate[without quinidine])}×100. A smaller value of the rate of CYP2D6 contribution means smaller CYP2D6 contribution.

CYP2D6 [4] = target: T2, CYP2D6; experiment: CYP2D6 inhibition screening test; format: in vitro ADME; settings: pooled human liver microsomes, substrate bufuralol, 37° C. 10 min, 1'-hydroxybufuralol by LC-MSMS; read-out: Test Example 3: CYP2D6 Inhibition IC50
Experimental: CYP2D6 Inhibition Screening Test
Bufuralol was purchased from Sigma-Aldrich Corp., and Pooled of Human Liver Microsomes was purchased from Xenotech, LLC.
150 μL of Pooled Human Liver Microsomes (20 mg/ml), 12 mL of a 0.5 M potassium phosphate buffer, 1.2 mL of a 165 mM magnesium chloride solution, and 34.65 mL of distilled water were mixed.
Bufuralol was dissolved at a concentration of 2.0 mM in DMSO and then diluted 200-fold with distilled water.
3-3 Experimental Procedures
1. A 10 mM DMSO solution of a test drug was serially diluted 5-fold with DMSO for 4 serial dilutions to prepare 10, 2, 0.4, and 0.08 mM DMSO solutions.
2. Each test drug solution of the step 1. and DMSO were separately diluted 96-fold with a human liver microsome solution, and each dilution was dispensed and 80 μL of each dilution to microplates.
3. 10 μL of a substrate solution and 10 μL of a β-NADPH solution were added to the well of the step 2., followed by incubation at 37° C. for 10 min.
4. The reaction was terminated by the addition of 300 μL of methanol.
5. The reaction mixture was filtered, and LC-MSMS analysis was conducted.
3-4 Quantification and Calculation
The amount of 1′-hydroxybufuralol produced was quantified by LC-MSMS, and this amount was used as a metabolic activity of CYP2D6 for each well. The remaining activity of each sample was determined by comparison with the activity obtained from DMSO as a test drug. An IC50 value of CYP2D6 inhibition was determined from the test drug concentration and remaining activity. The IC50 value was calculated by linear interpolation between two points that span the remaining activity 50%. A larger value of IC50 of CYP2D6 inhibition means weaker CYP2D6 inhibition.

[5] = target: T3, human serotonin 1A receptor (h-5-HT1A) (Homo sapiens, UniProt P08908)
T3 sequence (P08908 1-422): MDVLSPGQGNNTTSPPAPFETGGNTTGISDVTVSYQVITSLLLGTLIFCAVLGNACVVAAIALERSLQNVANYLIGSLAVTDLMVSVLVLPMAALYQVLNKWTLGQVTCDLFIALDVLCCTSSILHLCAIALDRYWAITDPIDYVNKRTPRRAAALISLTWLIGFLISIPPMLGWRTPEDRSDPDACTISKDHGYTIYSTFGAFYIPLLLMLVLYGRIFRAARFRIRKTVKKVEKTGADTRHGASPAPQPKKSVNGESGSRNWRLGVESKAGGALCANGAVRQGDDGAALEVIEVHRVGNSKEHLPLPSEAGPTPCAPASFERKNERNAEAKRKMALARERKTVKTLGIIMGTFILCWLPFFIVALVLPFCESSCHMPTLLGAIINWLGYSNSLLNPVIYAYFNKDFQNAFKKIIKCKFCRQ
Experimental: The cells were cultured in F12 containing 10% FCS, 500 μg/ml Geneticin, and 100 U/ml penicillin-100 μg/ml streptomycin (all manufactured by Sigma-Aldrich Corp.) in a 5% CO2 incubator. […] Specifically, the cells were dissociated/collected using 50 mM Tris-HCl (pH=7.4). The resulting cells were homogenized using a Teflon (registered trademark) homogenizer and then centrifuged (48,000×g, 20 min, 4° C.). The pellet was resuspended in an appropriate amount of 50 mM Tris-HCl (pH=7.4) and stored at −80° C. until use. The amount of the protein in the membrane preparation was quantified using Dye Reagent Concentrate (manufactured by Bio-Rad Laboratories, Inc.) with bovine serum albumin (manufactured by Sigma-Aldrich Corp.) as a standard.
The reaction solution was reacted at room temperature for 30 minutes and then rapidly filtered by suction at a low pressure through glass fiber filter paper. The glass fiber filter paper was washed twice with 250 μl of 50 mM Tris-HCl (pH=7.4) and then added to a counting vial containing 4 ml of ACS-II (manufactured by Amersham Biosciences). Receptor binding radioactivity remaining on the filter paper was measured using a liquid scintillation counter.

| Structure (SMILES) | Ki [1] | Ki [2] | Test Example 4: Rate of CYP2D6 Contribution (CYP2D6 [3]) | IC50 (CYP2D6 [4]) | Ki [5] | Rate of CYP2D6 Contribution indeterminable due to high stability for human microsomal metabolism (CYP2D6 [3]) |
| --- | --- | --- | --- | --- | --- | --- |
| COCCOc1cc(CC2CCN(CCc3ccc4c(c3)C(=O)CC4)CC2)ccc1Br [Example 1] | 0.00087 µM | 0.0089 µM | 36% | 27.9 µM | 0.0045 µM | – |
| COCCOc1cc(CC2CCN(CCc3ccc4c(c3)C(=O)CCC4)CC2)ccc1Br [Example 2, 7-(2-{4-[4-Bromo-3-(2-methoxyethoxy)benzyl]piperidin-1-yl}ethyl)-3,4-dihydronaphthalen-1(2H)-one] | 0.0007 µM | 0.0016 µM | 12% | 12.8 µM | – | – |
| COCCOc1cc(CC2CCN(CCc3ccc4c(c3)C(=O)CC4)CC2)ccc1C [Example 8, 6-(2-{4-[3-(2-Methoxyethoxy)-4-methylbenzyl]piperidin-1-yl}ethyl)-2,3-dihydro-1H-inden-1-one] | 0.0028 µM | – | 9.6% | 31 µM | 0.0037 µM | – |
| COCCOc1cc(CC2CCN(CCc3ccc4c(c3)C(=O)CCC4)CC2)ccc1C [Example 9, 7-(2-{4-[3-(2-Methoxyethoxy)-4-methylbenzyl]piperidin-1-yl}ethyl)-3,4-dihydronaphthalen-1(2H)-one] | 0.0031 µM | – | 7.8% | 33.7 µM | 0.013 µM | – |
| O=C1CCCc2ccc(CCN3CCC(Cc4ccc(Br)c(OCCO)c4)CC3)cc21 [Example 12, 7-(2-{4-[4-Bromo-3-(2-hydroxyethoxy)benzyl]piperidin-1-yl}ethyl)-3,4-dihydronaphthalen-1(2H)-one] | 0.0092 µM | – | 17% | 27.9 µM | 0.023 µM | – |
| O=C1CCCOc2ccc(CCN3CCC(Cc4ccc(Br)c(OCCO)c4)CC3)cc21 [Example 14, 7-(2-{4-[4-Bromo-3-(2-hydroxyethoxy)benzyl]piperidin-1-yl}ethyl)-3,4-dihydro-1-benzoxepin-5(2H)-one] | 0.0085 µM | – | – | 34.8 µM | 0.055 µM | —*^) |
| COCCOc1cc(Br)cc(CC2CCN(CCc3ccc4c(c3)C(=O)CC4)CC2)c1 [Example 15, 6-(2-{4-[3-Bromo-5-(2-methoxyethoxy)benzyl]piperidin-1-yl}ethyl)-2,3-dihydro-1H-inden-1-one] | 0.0032 µM | – | 11% | 36.1 µM | 0.035 µM | – |

The next lines start with the values.

| Ki [1] | Ki [2] | Test Example 4: Rate of CYP2D6 Contribution (CYP2D6 [3]) | IC50 (CYP2D6 [4]) | Ki [5] | Rate of CYP2D6 Contribution indeterminable due to high stability for human microsomal metabolism (CYP2D6 [3]) | Structure (SMILES) |
| --- | --- | --- | --- | --- | --- | --- |
| – | – | 0% | 22.9 µM | – | – | COCCOc1cc(CC2CCN(CCc3ccc4c(c3)C(=O)CCO4)CC2)ccc1Br.Cl [Example 4, 6-(2-{4-[4-Bromo-3-(2-methoxyethoxy)benzyl]piperidin-1-yl}ethyl)-2,3-dihydro-4H-chromen-4-one hydrochloride] |
| 0.0012 µM | 0.0016 µM | 4.2% | 24.7 µM | – | – | COCCOc1cc(CC2CCN(CCc3ccc4c(c3)C(=O)CCCO4)CC2)ccc1Br [Example 6, 7-(2-{4-[4-Bromo-3-(2-methoxyethoxy)benzyl]piperidin-1-yl}ethyl)-3,4-dihydro-1-benzoxepin-5(2H)-one] |
| 0.0027 µM | 0.016 µM | 54% | 17.5 µM | – | – | COCCOc1cc(CC2CCN(CCc3ccc4c(c3)C(=O)CCO4)CC2)ccc1Cl [Example 7, 6-(2-{4-[4-Chloro-3-(2-methoxyethoxy)benzyl]piperidin-1-yl}ethyl)-2,3-dihydro-4H-chromen-4-one] |
| 0.0042 µM | 0.044 µM | 49% | 21.5 µM | – | – | COCCOc1cc(CC2CCN(CCc3ccc4c(c3)C(=O)CCO4)CC2)ccc1C [Example 10] |
| 0.0064 µM | – | – | 24.6 µM | 0.0038 µM | —*^) | O=C1CCc2ccc(CCN3CCC(Cc4ccc(Br)c(OCCO)c4)CC3)cc21 [Example 11, 6-(2-{4-[4-Bromo-3-(2-hydroxyethoxy)benzyl]piperidin-1-yl}ethyl)-2,3-dihydro-1H-inden-1-one] |
| 0.0029 µM | – | 9.2% | 26.3 µM | 0.027 µM | – | COCCOc1cc(Br)cc(CC2CCN(CCc3ccc4c(c3)C(=O)CCC4)CC2)c1 [Example 16, 7-(2-{4-[3-Bromo-5-(2-methoxyethoxy)benzyl]piperidin-1-yl}ethyl)-3,4-dihydronaphthalen-1(2H)-one] |
| 0.004 µM | 0.018 µM | 14% | 24.6 µM | – | – | COCCOc1cc(Br)cc(CC2CCN(CCc3ccc4c(c3)C(=O)CCO4)CC2)c1 [Example 17] |
| 0.0062 µM | – | 0% | 27.5 µM | 0.295 µM | – | COCCOc1cc(Br)cc(CC2CCN(CCc3ccc4c(c3)C(=O)CCCO4)CC2)c1 [Example 18, 7-(2-{4-[3-Bromo-5-(2-methoxyethoxy)benzyl]piperidin-1-yl}ethyl)-3,4-dihydro-1-benzoxepin-5(2H)-one] |
| 0.003 µM | – | 16% | 20.4 µM | 0.029 µM | – | COCCOc1cc(Cl)cc(CC2CCN(CCc3ccc4c(c3)C(=O)CC4)CC2)c1 [Example 19, 6-(2-{4-[3-Chloro-5-(2-methoxyethoxy)benzyl]piperidin-1-yl}ethyl)-2,3-dihydro-1H-inden-1-one] |
| 0.0024 µM | – | 24% | 23.4 µM | 0.057 µM | – | COCCOc1cc(Cl)cc(CC2CCN(CCc3ccc4c(c3)C(=O)CCO4)CC2)c1 [Example 20, 6-(2-{4-[3-Chloro-5-(2-methoxyethoxy)benzyl]piperidin-1-yl}ethyl)-2,3-dihydro-4H-chromen-4-one] |
